Results from patent publication US20210355221A1, “Targeting the Non-Canonical NFkB Pathway in Cancer Immunotherapy” (The General Hospital Corporation, priority 2018, published 2021).

Columns and labels:
MC38 tumors = test: MC38 tumor model: tumor growth, survival, re-challenge; format: in vivo, mice
Experimental: MC38 tumor cell lines were obtained from Dr. Mark Smyth (QIMR Berghofer). MC38 cells were implanted at 2×10^6 cells in the flank. B16F10 cell lines were obtained from ATCC. B16F10 cells were implanted intradermally at 0.5×10^6 cells in the flank. All tumor models were allowed to grow for one week prior to therapy. Tumor sizes were approximately 75 mm^3 before treatment initiation, and starting tumor volumes were normalized between treatment groups. Percent tumor changes were calculated as percent difference of mouse tumor volume from pre-treatment baseline, measured using digital caliper. Lung seeding B16F10 models received 0.5×10^6 cells intravenously and were allowed to grow for 10 days from the point of implantation. Mouse tumors were allowed to grow to a maximum of 2 cm in diameter, or until tumor ulceration occurred. These were considered as endpoints for survival experiments in accordance with MGH IACUC regulations.
(§1) Tumor bearing mice, with a tumor size of approximately 75 mm^3, were treated with 200 μg of aPD-1 and/or 100 μg of aCD40 intraperitoneally for immunotherapy studies. For combination treatment studies, both aPD-1 and aCD40 were administered at the same time. For IL-12 neutralization studies, mice were dosed with 500 μg of anti-IL-12p40 Clone 17.8 daily for 5-7 days following aPD-1 therapy. Neutralization of IFN-γ in vivo was performed by administering 1 mg of anti-IFN-γ Clone XMG1.2 initially with 500 μg of anti-IFN-γ dosed daily intraperitoneally for days 1-3. The cIAP1/2 inhibitor AZD5582 (Hennessy et al., 2013) was purchased from Selleck Chem and was resuspended in sterile saline. Mice received a single dose of AZD5582 at 10 mg/kg, intraperitoneally. […]
Long-term surviving mice from aPD-1 and aCD40 combination therapy were re-challenged with either MC38 or B16F10 tumors at 50 days following primary tumor rejection. […] Naive C57BL/6J mice were implanted alongside re-challenge mice, and these mice were monitored for tumor growth for 2 weeks following implantation. […]

IL-12p40-eYFP^+ cells = test: Intravital imaging of MC38 tumors in IL-12p40-eYFP reporter mice; format: in vivo; conditions: after 48 hours compared to baseline
Experimental: as §1, with “saline.” for “saline. Mice received a single dose of AZD5582 at 10 mg/kg, intraperitoneally.”
Interferon gamma reporter (IFN-γ-eYFP) or IL-12p40 reporter (IL12p40-eYFP) mice were anesthetized and dorsal skin-fold window chambers were installed as previously described (Thurber et al., 2013) and mice were treated with analgesic (Buprenorphine 0.1 mg/kg/day) for 3 days following chamber implantation. […] Anesthetized mice were kept on a heating pad kept at 37° C., vital signs monitored and mice were imaged using an Olympus FluoView FV1000MPE confocal imaging system (Olympus America). […] Sequential scanning (5 μm slices) with 405, 473, 559, and 635 nm lasers was performed using voltage and power settings that were optimized using fluorescence minus-one control mice prior to time lapse acquisition. […]

[1] = test system: Flt3L-derived bone marrow DCs; test: Flt3L-derived bone marrow DCs cultured in vitro with AZD5582, IL-12p40 transcripts; format: cell-based; conditions: 24 hours, various concentrations of AZD5582
Experimental: FIGS. 13A-C. IL-12 Expressing Cells Express More CD40 and […] can Induce IL-12 Production In vitro. (A) Flow cytometry of MC38 tumors from IL-12p40-eYFP reporter mice, stained for CD40 expression; n=7 per group. (B) Flow cytometry of CD40 expression from the following tumor immune cell populations: Non-Antigen Presenting Cells (non-APCs, defined as F4/80−CD11c−MHCII−), macrophages (F4/80+) and IL-12+ DCs (CD11chi MHCIIhi IL-12+); n=4 per group. (C) Flt3L-derived bone marrow DCs were cultured in vitro with various concentrations of AZD5582 for 24 hours, and were harvested for RNA. Shown is fold change expression of IL-12p40 transcripts compared to untreated conditions (n=3 per condition). Results are representative of at least 2 independent experiments. ****p<0.0001; Student's two tailed t-test.

Structure (SMILES) | effect of FTY720 on the antitumor response to aPD-1 (MC38 tumors; MC38, FTY720 1.25 mg/kg i.p. daily with aPD-1) | fold increase of tumor-infiltrating IL-12^+ cells (IL-12p40-eYFP^+ cells) | antitumor response, MC38 tumors (MC38 tumors; MC38 tumor-bearing mice, treatment as labelled) | IL-12 production in vitro [1]
CCCCCCCCc1ccc(CCC(N)(CO)CO)cc1 [FTY720] | did not affect the antitumor response to aPD-1 treatment |  |  | 
CN[C@@H](C)C(=O)N[C@H](C(=O)N1CCC[C@H]1C(=O)N[C@H]1c2ccccc2C[C@H]1OCC#CC#CCO[C@@H]1Cc2ccccc2[C@@H]1NC(=O)[C@@H]1CCCN1C(=O)[C@@H](NC(=O)[C@H](C)NC)C1CCCCC1)C1CCCCC1 [AZD5582] |  | 4.0±1.3 fold | provided antitumor effects in vivo | potently enhanced IL-12 production in vitro
